From publication PMC2742306 (Molecular cell, 2009)
Marks after values point to notes of the source that are not given here. Residues, ends and D or L forms follow the SMILES beside them. No end group written: not given here.

Tests used:
[1] = target: T1, wild-type DegS (Escherichia coli, UniProt P0AEE3); experiment: OMP-peptide activation of RseA cleavage by wild-type DegS; assay type: biochemical, E. coli; conditions: for Hill Constant (peptide activation): 200 μM RseA
[2] = target: T2, K243D mutant of DegS (Escherichia coli, UniProt P0AEE3, K243D); experiment: OMP-peptide activation of RseA cleavage by K243D DegS; assay type: biochemical, E. coli; conditions: K243D
[3] = target: T3, D320A DegS (Escherichia coli, UniProt P0AEE3, D320A); experiment: OMP-peptide activation of RseA cleavage by D320A DegS; assay type: biochemical, E. coli; conditions: D320A; for Hill Constant (peptide activation): 200 μM RseA
[4] = target: T1, wild-type DegS; assay type: biochemical, E. coli; conditions: for L0, equilibrium constant T/R of unliganded enzyme / KTP/KRP / kr, rate constant for cleavage of RseA by substrate-bound R-state subunits: MWC global fit; for L0, equilibrium constant T/R of unliganded enzyme: enzyme parameter, peptide-independent; for KTP/KRP: peptide preference for relaxed state; for kr, rate constant for cleavage of RseA by substrate-bound R-state subunits: same value for all enzymes and peptides
[5] = target: T2, K243D mutant of DegS; experiment: Global fit to MWC allosteric model, K243D DegS; assay type: biochemical, E. coli; conditions: K243D, MWC global fit
[6] = target: T3, D320A DegS; experiment: Global fit to MWC allosteric model, D320A DegS; assay type: biochemical, E. coli; conditions: D320A, MWC global fit; for KRS, dissociation constant of RseA substrate for R-state subunit / KTS, dissociation constant of RseA substrate for T-state subunit: not peptide, binding; for L0, equilibrium constant T/R of unliganded enzyme: enzyme parameter, peptide-independent; for KTP/KRP: peptide preference for relaxed state; for kr, rate constant for cleavage of RseA by substrate-bound R-state subunits: same value for all enzymes and peptides
[7] = target: T1, wild-type DegS; assay type: biochemical, E. coli; conditions: wild-type DegS 0.9 μM trimer; 20 μM rhodamine-FP; saturating peptide
[8] = target: DegS K243D (residues 27–355, N-terminal His6 tag) (E. coli) (UniProt P0AEE3); experiment: enzyme kinetics
[9] = target: T4, DegS K243D (residues 27–355, N-terminal His6 tag) (E. coli, UniProt P0AEE3 27-355, K243D); experiment: enzyme kinetics
T4 sequence (looked up): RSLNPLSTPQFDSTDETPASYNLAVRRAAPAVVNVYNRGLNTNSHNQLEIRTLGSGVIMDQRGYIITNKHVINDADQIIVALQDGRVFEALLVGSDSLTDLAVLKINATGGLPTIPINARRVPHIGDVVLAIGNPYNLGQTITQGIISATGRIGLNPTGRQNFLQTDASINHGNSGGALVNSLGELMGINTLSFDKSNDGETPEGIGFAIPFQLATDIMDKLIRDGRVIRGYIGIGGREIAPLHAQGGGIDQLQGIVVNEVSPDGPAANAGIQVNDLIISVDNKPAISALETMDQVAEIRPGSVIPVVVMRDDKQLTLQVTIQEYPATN

[10] = target: T5, DegS D320A (residues 27–355, N-terminal His6 tag) (E. coli, UniProt P0AEE3 27-355, D320A); experiment: enzyme kinetics
T5 sequence (looked up): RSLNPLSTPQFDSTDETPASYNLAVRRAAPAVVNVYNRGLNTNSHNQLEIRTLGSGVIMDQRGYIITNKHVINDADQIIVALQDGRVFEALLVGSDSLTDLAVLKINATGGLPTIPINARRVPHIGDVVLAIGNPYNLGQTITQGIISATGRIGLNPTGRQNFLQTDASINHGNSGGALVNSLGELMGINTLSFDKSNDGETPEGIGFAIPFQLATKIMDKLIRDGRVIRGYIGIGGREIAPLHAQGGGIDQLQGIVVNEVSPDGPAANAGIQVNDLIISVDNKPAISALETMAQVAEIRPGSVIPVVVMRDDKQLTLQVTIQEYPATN

[11] = saturating peptide, single sub-KM RseA concentration

T1 sequence (P0AEE3 27-355): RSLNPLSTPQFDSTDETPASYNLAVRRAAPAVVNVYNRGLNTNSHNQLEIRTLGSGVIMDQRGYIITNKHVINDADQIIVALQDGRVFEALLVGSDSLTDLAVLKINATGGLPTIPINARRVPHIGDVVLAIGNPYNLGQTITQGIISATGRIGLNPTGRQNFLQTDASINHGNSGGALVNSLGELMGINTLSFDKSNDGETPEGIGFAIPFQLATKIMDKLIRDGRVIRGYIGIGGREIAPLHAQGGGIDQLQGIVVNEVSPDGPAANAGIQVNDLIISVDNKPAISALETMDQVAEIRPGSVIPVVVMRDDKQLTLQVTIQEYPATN

NC(=O)CC[C@H](NC(=O)[C@@H](N)Cc1ccc(O)cc1)C(=O)N[C@@H](Cc1ccccc1)C(=O)O [YQF] (H-Tyr-Gln-Phe-OH)
displacement in concentration between YYF and YQF activation curves ([1]; wild-type DegS): ~10 fold
Hill Constant (peptide activation) ([1]; wild-type DegS): 1.6 ± 0.1

DNRDGNVYQF [DNRDGNVYQF]
Hill Constant (peptide activation) ([1]; wild-type DegS): 1.6 ± 0.1
Hill Constant (peptide activation) ([2]; 200 μM RseA): 1.3 ± 0.1
RseA cleavage relative to wild-type DegS [2, 11]: about three-fold faster
Hill Constant (peptide activation) [3]: 1.2 ± 0.1
RseA cleavage relative to wild-type DegS [3, 11]: about three-fold faster
L0, equilibrium constant T/R of unliganded enzyme [4]: 15000
KTP/KRP [4]: 6.1
kr, rate constant for cleavage of RseA by substrate-bound R-state subunits [4]: 3.3 s⁻¹
KRS, dissociation constant of RseA substrate for R-state subunit ([5]; RseA, not peptide, binding): 150 µM
KTS, dissociation constant of RseA substrate for T-state subunit ([5]; RseA, not peptide, binding): 505 µM
L0, equilibrium constant T/R of unliganded enzyme ([5]; enzyme parameter, peptide-independent): 180
KTP/KRP ([5]; peptide preference for relaxed state): 1.9
kr, rate constant for cleavage of RseA by substrate-bound R-state subunits ([5]; same value for all enzymes and peptides): 3.3 s⁻¹
KRS, dissociation constant of RseA substrate for R-state subunit [6]: 150 µM
KTS, dissociation constant of RseA substrate for T-state subunit [6]: 505 µM
L0, equilibrium constant T/R of unliganded enzyme [6]: 350
KTP/KRP [6]: 2.8
kr, rate constant for cleavage of RseA by substrate-bound R-state subunits [6]: 3.3 s⁻¹

EDGEDGDYYF [EDGEDGDYYF]
Hill Constant (peptide activation) ([1]; wild-type DegS): 1.3 ± 0.1
Hill Constant (peptide activation) [3]: 1.3 ± 0.1
rate of rhodamine-FP modification in presence of peptide (order) [7]: slower still
KRS, dissociation constant of RseA substrate for R-state subunit [6]: 150 µM
KTS, dissociation constant of RseA substrate for T-state subunit [6]: 505 µM
L0, equilibrium constant T/R of unliganded enzyme [6]: 350
KTP/KRP [6]: 2.1
kr, rate constant for cleavage of RseA by substrate-bound R-state subunits [6]: 3.3 s⁻¹

KRRKGKVYYF [KRRKGKVYYF]
EC50 [1]: ≤ 1000 nM
Hill Constant (peptide activation) ([1]; wild-type DegS): ~1.2 ^a
apparent affinity (in words) ([1]; wild-type DegS, among tested peptides): highest apparent affinity
maximal activation (in words) ([1]; wild-type DegS, saturating peptide): lowest maximal activation
rate of rhodamine-FP modification in presence of peptide (order) [7]: slowest
L0, equilibrium constant T/R of unliganded enzyme [4]: 15000
KTP/KRP [4]: 3.3
kr, rate constant for cleavage of RseA by substrate-bound R-state subunits [4]: 3.3 s⁻¹
DegS molecules in active conformation ([4]; saturating peptide and saturating RseA substrate, MWC model): 9%

YYF tripeptide
KRP (dissociation constant for an R-state subunit) [8]: 1.24 µM
KTP (dissociation constant for a T-state subunit) [8]: 3.76 µM

DNRDGNVYYF [OMP peptide DNRDGNVYYF]
KRP (dissociation constant for an R-state subunit) [9]: 0.07 µM
KTP (dissociation constant for a T-state subunit) [9]: 0.14 µM
KRP (dissociation constant for an R-state subunit) [10]: 0.06 µM
KTP (dissociation constant for a T-state subunit) [10]: 0.2 µM

DNRDGNVYQF [OMP peptide DNRDGNVYQF]
KRP (dissociation constant for an R-state subunit) [9]: 1.64 µM
KTP (dissociation constant for a T-state subunit) [9]: 3.19 µM
KRP (dissociation constant for an R-state subunit) [10]: 1.09 µM
KTP (dissociation constant for a T-state subunit) [10]: 2.98 µM

EDGEDGDYYF [OMP peptide EDGEDGDYYF]
KRP (dissociation constant for an R-state subunit) [10]: 4.02 µM
KTP (dissociation constant for a T-state subunit) [10]: 8.5 µM
